Test results: ChEMBL document CHEMBL1201862, “PubChem BioAssay data set” (2004)
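96-well plates; 48 h exposure; 5 concentrations. Endpoints by linear interpolation between flanking doses. Not reached: highest tested concentration assigned. GI50 is the concentration that inhibits growth by half.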 Active and inactive are the calls of the source. No stated cut-off is given here; in the data, active = GI50 up to about 1.1 µM and inactive = higher.

What was measured:
Assay in all cases: NCI-60 cell line screen, 48 h
[1] = test system: 786-0
[2] = test system: A549
[3] = test system: HCC 2998
[4] = test system: HCT-15
[5] = test system: HOP-62
[6] = test system: Hs-578T
[7] = test system: IGROV-1
[8] = test system: LOX IMVI
[9] = test system: MDA-MB-231
[10] = test system: MDA-MB-435
[11] = test system: NCI-H460
[12] = test system: NCI/ADR-RES
[13] = test system: OVCAR-3
[14] = test system: OVCAR-4
[15] = test system: OVCAR-5
[16] = test system: RPMI-8226
[17] = test system: SF-539
[18] = test system: SK-MEL-2
[19] = test system: SK-OV-3
[20] = test system: SNB-19

Compound | GI50 [1] | GI50 [2] | GI50 [3] | GI50 [4] [µM] | GI50 [5] | GI50 [6] | GI50 [7] | GI50 [8] | GI50 [9] | GI50 [10] | GI50 [11] | GI50 [12] | GI50 [13] | GI50 [14] | GI50 [15] | GI50 [16] | GI50 [17] | GI50 [18] | GI50 [19] | GI50 [20]
Brc1cc2nn(-c3ccccc3)nc2c2nonc12 | > 100 µM (inactive) | > 100 µM (inactive) | > 100 µM (inactive) | > 100 | > 100 µM (inactive) | > 100 µM (inactive) | > 100 µM (inactive) | > 100 µM (inactive) | > 100 µM (inactive) | > 100 µM (inactive) | > 100 µM (inactive) | > 100 µM (inactive) | > 100 µM (inactive) | > 100 µM (inactive) | > 100 µM (inactive) | > 100 µM (inactive) | > 100 µM (inactive) | > 100 µM (inactive) | > 100 µM (inactive) | > 100 µM (inactive)
O=S1(=O)NC2CCC3NS(=O)(=O)NC4CCC(N1)N4S(=O)(=O)N23 (stereo not given) | > 100 µM (inactive) | > 100 µM (inactive) | > 100 µM (inactive) | > 100 | > 100 µM (inactive) | > 100 µM (inactive) | > 100 µM (inactive) | > 100 µM (inactive) | > 100 µM (inactive) | > 100 µM (inactive) | > 100 µM (inactive) | > 100 µM (inactive) | > 100 µM (inactive) | > 100 µM (inactive) | > 100 µM (inactive) | > 100 µM (inactive) | > 100 µM (inactive) | > 100 µM (inactive) | > 100 µM (inactive) | > 100 µM (inactive)
CC(C)C[C@H](NC(=O)[C@@H](Cc1cccc2ccccc12)NC(=O)N1CCOCC1)B(O)O | 4.79 µM (inactive) | 19.8 µM (inactive) | 2.01 µM (inactive) | 21.9 | 16 µM (inactive) | 3.84 µM (inactive) | 5.06 µM (inactive) | 2.36 µM (inactive) | 4.48 µM (inactive) | 1.92 µM (inactive) | 18.5 µM (inactive) | 51.4 µM (inactive) | 2.61 µM (inactive) | 4.72 µM (inactive) | 3.19 µM (inactive) | 2.52 µM (inactive) | 2.04 µM (inactive) | 3.33 µM (inactive) | 6.85 µM (inactive) | 9.77 µM (inactive)
O=C(O)C(Oc1nc(S)nc(S)n1)(c1ccc(Cl)cc1)c1ccc(Cl)cc1 | > 100 µM (inactive) | > 100 µM (inactive) | 92.7 µM (inactive) | > 100 | > 100 µM (inactive) | > 100 µM (inactive) | > 100 µM (inactive) | > 100 µM (inactive) | > 100 µM (inactive) | > 100 µM (inactive) | > 100 µM (inactive) | > 100 µM (inactive) | > 100 µM (inactive) | > 100 µM (inactive) | > 100 µM (inactive) | > 100 µM (inactive) | > 100 µM (inactive) | > 100 µM (inactive) | > 100 µM (inactive) | > 100 µM (inactive)
COc1ccc(C2Oc3ccc(Cl)cc3C=C2[N+](=O)[O-])cc1OC (stereo not given) | 0.388 µM (active) | 1.83 µM (inactive) | 1.77 µM (inactive) | 1.47 | 1.49 µM (inactive) | 1.07 µM (active) | 1.56 µM (inactive) | 0.32 µM (active) | 1.27 µM (inactive) | 0.15 µM (active) | 2.38 µM (inactive) | 0.456 µM (active) | 0.719 µM (active) | 1.93 µM (inactive) | 1.5 µM (inactive) | 0.229 µM (active) | 1.55 µM (inactive) | 1.48 µM (inactive) | 2.3 µM (inactive) | 1.92 µM (inactive)
C=C1CC(CN2CCC(=O)NC2=O)(c2ccccc2)OC1=O (stereo not given) | 4.47 µM (inactive) | 16.9 µM (inactive) | 15 µM (inactive) | 4.98 | 21.3 µM (inactive) | 16.1 µM (inactive) | 7.87 µM (inactive) | 3.75 µM (inactive) | 15 µM (inactive) | 8.89 µM (inactive) | 19.4 µM (inactive) | 11.6 µM (inactive) | 13 µM (inactive) | 1.81 µM (inactive) | 15.1 µM (inactive) | 2.19 µM (inactive) | 13.7 µM (inactive) | 12.6 µM (inactive) | 16.5 µM (inactive) | > 41.4 µM (inactive)
